Data: US10570099B2, “Salts of an epidermal growth factor receptor kinase inhibitor” (Celgene CAR LLC, priority 2012, dated 2020)
Structures can show the parent of a compound that is named as a salt.

Experiments:
[1] = Dynamic vapour sorption (DVS); assay type: physicochemical
Experimental: For dynamic vapour sorption (DVS), approximately 10-20 mg of sample was placed into a wire mesh vapour sorption balance pan and loaded into a DVS-1 dynamic vapour sorption balance by Surface Measurement Systems. The sample was subjected to a ramping profile from 20-90% relative humidity (RH) at 10% increments, maintaining the sample at each step until a stable weight had been achieved (99.5% step completion). After completion of the sorption cycle, the sample was dried using the same procedure, but all the way down to 0% RH and finally taken back to the starting point of 20% RH. The weight change during the sorption/desorption cycles were plotted, allowing for the hygroscopic nature of the sample to be determined.

[2] = 1 week stability study (XRPD and HPLC); assay type: physicochemical
Experimental: (§1) Resulting solids were analysed by XRPD and HPLC to establish if any changes had occurred.
as §1
The resulting solids were analysed by XRPD and HPLC to establish if any changes had occurred.

[3] = Thermodynamic solubility in media of various pH (HPLC; XRPD of excess solids); conditions: for Thermodynamic Solubility: ca. 24 hours
Experimental: The remaining solids were also analysed by XRPD analysis to establish if any changes in the solid form occurred.
The remaining solids were also analysed by XRPD analysis to establish if any changes in the solid form occurred. For the buffer solutions, KCl/HCl was used for pH 1 and citrate/phosphate combinations for pH 3, 4.5 and 6.6.
The remaining solids were also analysed by XRPD analysis to establish if any changes in the solid form occurred. For the buffer solutions, KCl/HCl was used for pH 1 and citric acid/sodium citrate combinations for pH 3, 4.5 and 6.2.
The solids were then removed by filtration and tested by XRPD analysis. The mother liquors were analyzed by HPLC to determine API solubility.
For the buffer solutions, KCl/HCl was used for pH 1 and citrate/phosphate combinations for pH 3, 4.5 and 6.6 (10 mM). The pH of the solutions was also measured prior to HPLC analysis.

[4] = 1 week stability of primary screen salts at 40° C./75% RH and 80° C. (open vials, XRPD); assay type: physicochemical
Experimental: (§2) (open vials). TGA was carried out after the stability studies for samples containing sufficient material.

[5] = Shake flask solubility of potential salts in aqueous medium (pH<2); assay type: physicochemical; conditions: pH<2, ca. 24 hours shaking, HPLC
Experimental: The solubility of the potential salts was tested using a shake flask method whereby a slurry of each salt was prepared in deionized water and the pH of the reaction was reduced to below pH 2 by adding a small amount of the counterion used for salt formation. The pH was tested using universal indicator paper.
as §2

[6] = Dog PK Study 1 (cross-over, fasted); assay type: in vivo, beagle dogs; conditions: male, beagle, po; for AUC(0-t): read-out: AUC0-24; for Tmax: median
Experimental: Compound 1 free base and compound 2, as the Form I monohydrobromide (HBr) salt, were evaluated in a cross-over dog PK study. Compound 1 free base capsule consisted of compound 1 free base in Vitamin E TPGS and PEG 400 filled into a capsule. The Form I hydrobromide salt capsule consisted of Form I HBr alone filled into a capsule.
Compound 1 free base capsule and Form I HBr capsule were dosed orally at 28.5 and 24.5 mg/kg (as active) QD, respectively, to three fasted male non-naïve beagle dogs (body weight range: 10.1-10.8 kg) with a 5-day washout period. Approximately 5 mL of tap water was orally administered to encourage swallowing and ensure delivery of capsules into the stomach. Plasma samples were collected at pre-dose and 0.5, 1, 2, 4, 6, 8, 12 and 24 hours post dose. The plasma concentrations of compound 1 were determined by a liquid chromatography-tandem mass spectrometry (LC/MS/MS) method.

[7] = Dog PK Study 2 (gastric pH adjustment, food effect); assay type: in vivo, beagle dogs; conditions: 30 mg/kg, plasma compound 1, dogs (n = 3), capsule orally 30 mg/kg, mean (% CV); for AUC(0-t): read-out: AUC0-24
Experimental: Compound 1 free base and compound 2, as the Form I monohydrobromide (HBr) salt, were evaluated in a cross-over dog PK study in which male dogs were pre-treated with either pentagastrin (to decrease gastric pH) or famotidine (to increase gastric pH) prior to oral dosing to control gastric pH. In addition, the effect of food on the systemic exposure to compound 1 was also evaluated in dogs receiving Form I HBr with pentagastrin pre-treatment. Compound 1 free base capsule consisted of compound 1 free base in Vitamin E TPGS and PEG 400 filled into a capsule. The Form I hydrobromide salt capsule consisted of Form I HBr alone filled into a capsule.
There was a minimum 6-day washout between dosing. On the day of dosing under fed condition, dogs were given 60 gram of a high fat diet (Harlan Teklad 2027C) and allowed to consume all of the food within 15-20 minutes. The animals were given a 10-minute rest period and then the capsule doses were administered. Plasma samples were collected at pre-dose and 0.5, 1, 2, 4, 6, 8, 12 and 24 hours post dose.

[8] = 25° C., closed container, 7 day
[9] = 80° C., closed container, 7 day
[10] = dog, plasma compound 1, fasted dogs (n = 3), capsule orally 24.5 mg/kg, mean (% CV)
[11] = plasma compound 1, fasted dogs, capsule orally 28.5 mg/kg, mean, dog #3 excluded

For `Br.C=CC(=O)Nc1cccc(Nc2nc(Nc3ccc(N4CCN(C(C)=O)CC4)cc3OC)ncc2C(F)(F)F)c1` [Form III hydrobromide salt], the “hygroscopicity (DVS)” value [1] was “slightly hygroscopic”, the “Moisture uptake, Cycle 3 Sorption” value ([1]; 0-20% RH) was “ca. 0.535%” and the “mass uptake, Cycle 1 Sorption” value ([1]; 20-90% RH) was “ca. 1.045%”. The “mass decrease, Cycle 2 Desorption” value ([1]; 90-0% RH) was “ca. 1.983%”, the “post DVS XRPD analysis (polymorphic form)” value ([1]; after DVS cycles, listed as Form III) was “converted to Form I hydrobromide salt” and the “HPLC purity after storage” value [2, 8] was 98.9%. For the same compound, the XRPD after storage [2, 8] was “Form I”, the “HPLC purity after storage” value ([2]; 25° C., open container, 7 day) was 98.2% and the XRPD after storage ([2]; 25° C., open container, 7 day) was “Form I”. The “HPLC purity after storage” value ([2]; 40° C./75% RH, closed (crimped) vial, 1 week) was 99.0%, the XRPD after storage ([2]; 40° C./75% RH, closed (crimped) vial, 1 week, listed as Form III) was “Form I” and the “HPLC purity after storage” value ([2]; 40° C./75% RH, open vial, 1 week) was 98.3%. For the same compound, the XRPD after storage ([2]; 40° C./75% RH, open vial, 1 week, listed as Form III) was “Form I”, the “HPLC purity after storage” value [2, 9] was 99.0% and the XRPD after storage [2, 9] was “Form I”. For the same compound, the “HPLC purity after storage” value ([2]; 80° C., open vial, 1 week, listed as Form III) was 98.7%, the “pH prior to analysis” value ([3]; Buffer pH 1) was 0.95 and the “pH prior to analysis” value ([3]; Buffer pH 3) was 1.53. For the same compound, the “pH prior to analysis” value ([3]; Buffer pH 4.5) was 1.79, the “pH prior to analysis” value ([3]; Buffer pH 6.6) was 1.79 and the “XRPD of excess solids” value ([3]; pH 1.0, KCl/HCl) was “remained predominantly consistent with the Form III hydrobromide”. For the same compound, the “Thermodynamic Solubility” value ([3]; pH 1.0, KCl/HCl buffer, listed as Form III) was 13880 µg/mL, the “XRPD of excess solids” value ([3]; pH 3.0, Citrate/Phosphate) was “became amorphous” and the “XRPD of excess solids” value ([3]; pH 4.5, Citrate/Phosphate) was “converted to a freebase hydrate form”. The “Thermodynamic Solubility” value ([3]; pH 4.5, Citrate/Phosphate) was 280 µg/mL and the “XRPD of excess solids” value ([3]; pH 6.6, Citrate/Phosphate) was “converted to a freebase hydrate form”.

With `C=CC(=O)Nc1cccc(Nc2nc(Nc3ccc(N4CCN(C(C)=O)CC4)cc3OC)ncc2C(F)(F)F)c1.O=C(O)c1c(O)cc(O)cc1O` [2,4,6-Trihydroxybenzoate Form I] the “Stability 40° C./75% RH (open conditions)” value [4] was “No form change,”, the “Stability 80° C. (open conditions)” value [4] was “No form change,” and the “Approximate Solubility” value [5] was “Below LOQ”.

In the case of `C=CC(=O)Nc1cccc(Nc2nc(Nc3ccc(N4CCN(C(C)=O)CC4)cc3OC)ncc2C(F)(F)F)c1.O=C(O)c1c(O)cc(O)cc1O` [2,4,6-Trihydroxybenzoate Form II], the “Approximate Solubility” value [5] is reported as “Below LOQ”.

Work on `C=CC(=O)Nc1cccc(Nc2nc(Nc3ccc(N4CCN(C(C)=O)CC4)cc3OC)ncc2C(F)(F)F)c1` [Compound 2 (Form I Hydrobromide)] yielded a half-life ([6]; dog, plasma compound 1, fasted dogs (n = 3), capsule orally 24.5 mg/kg, mean) of 2.4 h, a Cmax [6, 10] of 1420 ng/mL and an AUC(0-t) [6, 10] of 5260 ng·h/mL. It also gave a Tmax ([6]; dog, plasma compound 1, fasted dogs (n = 3), capsule orally 24.5 mg/kg) of 2 h, an AUC(0-t) ([7]; male, beagle, dog, plasma, po, Pentagastrin, fed) of 13900 ng·h/mL and a Cmax ([7]; male, beagle, dog, plasma, po, Pentagastrin, fed, read-out: Cmax) of 3970 ng/mL. For the same compound, the AUC0-24 ([7]; Famotidine, fasted) was 4010 (54%) ng · h/mL, the Cmax ([7]; Famotidine, fasted) was 1180 (20%) ng/mL and the AUC0-24 ([7]; Pentagastrin, fasted) was 9450 (31%) ng · h/mL. For the same compound, the Cmax ([7]; Pentagastrin, fasted) was 2860 (39%) ng/mL.

`C=CC(=O)Nc1cccc(Nc2nc(Nc3ccc(N4CCN(C(C)=O)CC4)cc3OC)ncc2C(F)(F)F)c1` [Compound 1 (Free Base)] gave a Cmax [6, 11] of 120 ng/mL, a half-life [6, 11] of 2.1 h and an AUC(0-t) [6, 11] of 278 ng·h/mL. It also gave a Tmax ([6]; plasma compound 1, fasted dogs, capsule orally 28.5 mg/kg, dog #3 excluded) of 1 h, an AUC(0-t) ([7]; male, beagle, dog, plasma, po, Pentagastrin, fasted) of 7810 ng·h/mL and a Cmax ([7]; male, beagle, dog, plasma, po, Pentagastrin, fasted, read-out: Cmax) of 1820 ng/mL. For the same compound, the AUC0-24 ([7]; Famotidine, fasted) was 163 (3%) ng · h/mL and the Cmax ([7]; Famotidine, fasted) was 57 (24%) ng/mL.
